The values that follow are results of earlier work, collected in patent US20200330378A1, “TASTE-ENHANCED C[…] EMULSION SYRUP COMPOSITIONS” (ICDPHARMA LTD., priority 2018, published 2020).

For data set [1] the following is noted: patients with insomnia; 160 mg dose of CBD compared to placebo.
For data set [2] the following is noted: 75-300 mg of CBD taken daily.
Data set [3] relates to human lung tumors implanted into rats and mice.
The conditions of data set [4]: subjects given THC.

As for `C=C(C)[C@@H]1CCC(C)=C[C@H]1c1c(O)cc(CCCCC)cc1O` [CBD, cannabidiol], in data set [1], the length of sleep result is reported as “increased”. The “symptoms of REM sleep behavior disorder” value in data set [2] is “reduce or eliminate entirely”.

`CCCCCc1cc(O)c2c(c1)OC(C)(C)[C@@H]1CCC(C)=C[C@@H]21` [THC, tetrahydrocannabinol]: in data set [3] (human lung tumors implanted into rats and mice), the “reduction in tumor mass and volume” value is reported as ≤ 50%. Also, in data set [3] (rats and mice), the “reduction of cancerous lesions in the lungs” value is recorded as “around 60%”. In data set [4], the “amount of time to fall asleep” value was “significant decrease”.
